Test results: the supplement of paper PMC10307832

Key:
Experiment in all cases: relative viability (nuclei count vs DMSO), 5 days (fraction); higher = more cells survive
[1] = test system: NCI-H1563
Summary of the method: (§1)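 Cells from lung cancer lines were seeded into 1536-well plates and, one day later, dosed by pin tool. Treatments were either a single drug or a fixed dose of an anchor drug with five library-drug doses (not always all listed) in √10 steps. After 5 days, nuclei were stained in a one-step fixation (final 0.05% Triton X-100, 1% formaldehyde, 1 ug/ml Hoechst) and counted on 4× images, and relative viability is the treated-to-vehicle nuclei ratio, as the median of duplicate plates.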

[2] = test system: NCI-H650
Summary of the method: as §1

[3] = test system: NCI-H3122
Summary of the method: as §1

[4] = test system: NCI-H2126
Summary of the method: as §1

[5] = test system: NCI-H1755
Summary of the method: as §1

[6] = test system: LU99A
Summary of the method: as §1

[7] = test system: NCI-H1437
Summary of the method: as §1

[8] = test system: BEN
Summary of the method: as §1

[9] = test system: HCC-44
Summary of the method: as §1

[10] = test system: HCC-15
Summary of the method: as §1

[11] = test system: NCI-H727
Summary of the method: as §1

[12] = test system: NCI-H2023
Summary of the method: as §1

[13] = test system: NCI-H1395
Summary of the method: as §1

[14] = test system: NCI-H1734
Summary of the method: as §1

[15] = test system: SW 1573
Summary of the method: as §1

[16] = test system: NCI-H1915
Summary of the method: as §1

[17] = test system: LC-2-ad
Summary of the method: as §1

[18] = test system: NCI-H2170
Summary of the method: as §1

[19] = test system: NCI-H358
Summary of the method: as §1

[20] = test system: EMC-BAC-2
Summary of the method: as §1

[21] = test system: HOP-62
Summary of the method: as §1

`CCNC(=O)c1noc(-c2cc(C(C)C)c(O)cc2O)c1-c1ccc(CN2CCOCC2)cc1` [Luminespib] + CS(=O)(=O)N1CCN(Cc2cc3nc(-c4cccc5[nH]ncc45)nc(N4CCOCC4)c3s2)CC1 [Pictilisib] (partner 1 µM) was tested, and the relative viability ([1]; first compound 0.002 µM) was 0.721, the relative viability ([1]; first compound 0.006325 µM) was 0.605 and the relative viability ([1]; first compound 0.02 µM) was 0.616. It also gave a relative viability ([1]; first compound 0.06325 µM) of 0.525, a relative viability ([1]; first compound 0.2 µM) of 0.551 and a relative viability ([2]; first compound 0.002 µM) of 1.09. For the same compound, the relative viability ([2]; first compound 0.006325 µM) was 0.851, the relative viability ([2]; first compound 0.02 µM) was 0.477 and the relative viability ([2]; first compound 0.06325 µM) was 0.209. For the same compound, the relative viability ([2]; first compound 0.2 µM) was 0.127, the relative viability ([3]; first compound 0.002 µM) was 0.621 and the relative viability ([3]; first compound 0.006325 µM) was 0.621. It also gave a relative viability ([3]; first compound 0.02 µM) of 0.368, a relative viability ([3]; first compound 0.06325 µM) of 0.166 and a relative viability ([3]; first compound 0.2 µM) of 0.176. For the same compound, the relative viability ([4]; first compound 0.002 µM) was 0.464, the relative viability ([4]; first compound 0.006325 µM) was 0.503 and the relative viability ([4]; first compound 0.02 µM) was 0.399. It also gave a relative viability ([4]; first compound 0.06325 µM) of 0.49, a relative viability ([4]; first compound 0.2 µM) of 0.273 and a relative viability ([5]; first compound 0.002 µM) of 0.399. The relative viability ([5]; first compound 0.006325 µM) was 0.372, the relative viability ([5]; first compound 0.02 µM) was 0.351 and the relative viability ([5]; first compound 0.06325 µM) was 0.136. For the same compound, the relative viability ([5]; first compound 0.2 µM) was 0.105, the relative viability ([6]; first compound 0.002 µM) was 0.351 and the relative viability ([6]; first compound 0.006325 µM) was 0.36. For the same compound, the relative viability ([6]; first compound 0.02 µM) was 0.226, the relative viability ([6]; first compound 0.06325 µM) was 0.153 and the relative viability ([6]; first compound 0.2 µM) was 0.112. For the same compound, the relative viability ([7]; first compound 0.002 µM) was 0.343, the relative viability ([7]; first compound 0.006325 µM) was 0.495 and the relative viability ([7]; first compound 0.02 µM) was 0.249. For the same compound, the relative viability ([7]; first compound 0.06325 µM) was 0.133, the relative viability ([7]; first compound 0.2 µM) was 0.0978 and the relative viability ([8]; first compound 0.002 µM) was 0.514. It also gave a relative viability ([8]; first compound 0.006325 µM) of 0.597, a relative viability ([8]; first compound 0.02 µM) of 0.332 and a relative viability ([8]; first compound 0.06325 µM) of 0.266. It also gave a relative viability ([8]; first compound 0.2 µM) of 0.191, a relative viability ([9]; first compound 0.002 µM) of 0.663 and a relative viability ([9]; first compound 0.006325 µM) of 0.641. The relative viability ([9]; first compound 0.02 µM) was 0.62, the relative viability ([9]; first compound 0.06325 µM) was 0.381 and the relative viability ([9]; first compound 0.2 µM) was 0.12. The relative viability ([10]; first compound 0.002 µM) was 0.724, the relative viability ([10]; first compound 0.006325 µM) was 0.644 and the relative viability ([10]; first compound 0.02 µM) was 0.623. It also gave a relative viability ([10]; first compound 0.06325 µM) of 0.413, a relative viability ([10]; first compound 0.2 µM) of 0.157 and a relative viability ([11]; first compound 0.002 µM) of 0.427. The relative viability ([11]; first compound 0.006325 µM) was 0.399, the relative viability ([11]; first compound 0.02 µM) was 0.264 and the relative viability ([11]; first compound 0.06325 µM) was 0.123. It also gave a relative viability ([11]; first compound 0.2 µM) of 0.166, a relative viability ([12]; first compound 0.002 µM) of 0.274 and a relative viability ([12]; first compound 0.006325 µM) of 0.243. For the same compound, the relative viability ([12]; first compound 0.02 µM) was 0.105, the relative viability ([12]; first compound 0.06325 µM) was 0.0887 and the relative viability ([12]; first compound 0.2 µM) was 0.0954. It also gave a relative viability ([13]; first compound 0.002 µM) of 0.684, a relative viability ([13]; first compound 0.006325 µM) of 0.725 and a relative viability ([13]; first compound 0.02 µM) of 0.429. For the same compound, the relative viability ([13]; first compound 0.06325 µM) was 0.326, the relative viability ([13]; first compound 0.2 µM) was 0.377 and the relative viability ([14]; first compound 0.002 µM) was 0.519. The relative viability ([14]; first compound 0.006325 µM) was 0.43, the relative viability ([14]; first compound 0.02 µM) was 0.329 and the relative viability ([14]; first compound 0.06325 µM) was 0.14. The relative viability ([14]; first compound 0.2 µM) was 0.146, the relative viability ([15]; first compound 0.002 µM) was 0.508 and the relative viability ([15]; first compound 0.006325 µM) was 0.619. The relative viability ([15]; first compound 0.02 µM) was 0.428, the relative viability ([15]; first compound 0.06325 µM) was 0.145 and the relative viability ([15]; first compound 0.2 µM) was 0.105. For the same compound, the relative viability ([16]; first compound 0.002 µM) was 0.939, the relative viability ([16]; first compound 0.006325 µM) was 0.729 and the relative viability ([16]; first compound 0.02 µM) was 0.567. For the same compound, the relative viability ([16]; first compound 0.06325 µM) was 0.827, the relative viability ([16]; first compound 0.2 µM) was 0.062 and the relative viability ([17]; first compound 0.002 µM) was 0.526. For the same compound, the relative viability ([17]; first compound 0.006325 µM) was 0.477, the relative viability ([17]; first compound 0.02 µM) was 0.276 and the relative viability ([17]; first compound 0.06325 µM) was 0.11. The relative viability ([17]; first compound 0.2 µM) was 0.0708, the relative viability ([18]; first compound 0.002 µM) was 0.304 and the relative viability ([18]; first compound 0.006325 µM) was 0.313. The relative viability ([18]; first compound 0.02 µM) was 0.223, the relative viability ([18]; first compound 0.06325 µM) was 0.165 and the relative viability ([18]; first compound 0.2 µM) was 0.155. The relative viability ([19]; first compound 0.002 µM) was 0.342, the relative viability ([19]; first compound 0.006325 µM) was 0.311 and the relative viability ([19]; first compound 0.02 µM) was 0.222. The relative viability ([19]; first compound 0.06325 µM) was 0.133, the relative viability ([19]; first compound 0.2 µM) was 0.124 and the relative viability ([20]; first compound 0.002 µM) was 0.54. The relative viability ([20]; first compound 0.006325 µM) was 0.511, the relative viability ([20]; first compound 0.02 µM) was 0.417 and the relative viability ([20]; first compound 0.06325 µM) was 0.573. It also gave a relative viability ([20]; first compound 0.2 µM) of 0.163, a relative viability ([21]; first compound 0.002 µM) of 0.678 and a relative viability ([21]; first compound 0.006325 µM) of 0.838. It also gave a relative viability ([21]; first compound 0.02 µM) of 0.43, a relative viability ([21]; first compound 0.06325 µM) of 0.164 and a relative viability ([21]; first compound 0.2 µM) of 0.0784.
